Experimental findings from PMC7508162 (Frontiers in Pharmacology, 2020) are described below.

Where only a bound is given, the exact number is not on record here.

Experiment [1] has as its target T1, NTPDase2 (Homo sapiens, UniProt Q9Y5L3).
T1 sequence (Q9Y5L3 1-495): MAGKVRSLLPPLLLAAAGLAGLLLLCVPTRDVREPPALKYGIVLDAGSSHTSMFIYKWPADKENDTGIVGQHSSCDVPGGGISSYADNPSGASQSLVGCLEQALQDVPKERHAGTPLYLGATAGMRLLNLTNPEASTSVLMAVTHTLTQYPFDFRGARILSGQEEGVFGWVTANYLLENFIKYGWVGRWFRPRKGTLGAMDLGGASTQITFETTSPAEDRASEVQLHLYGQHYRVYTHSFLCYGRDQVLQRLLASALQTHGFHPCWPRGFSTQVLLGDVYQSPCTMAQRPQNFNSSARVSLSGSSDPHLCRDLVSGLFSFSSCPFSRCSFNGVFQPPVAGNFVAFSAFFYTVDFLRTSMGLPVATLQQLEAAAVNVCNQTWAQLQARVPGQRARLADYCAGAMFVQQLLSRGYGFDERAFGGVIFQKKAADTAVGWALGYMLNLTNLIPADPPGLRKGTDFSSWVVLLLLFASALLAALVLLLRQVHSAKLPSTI
Kind of experiment: Malachite green assay for NTPDase2. It counts as biochemical. Conditions: for Ki: ATP 50 µM, recombinant COS-7 cell membrane preparation, read-out: Ki ± SEM. Also noted: expressed in transfected cells; host or cells: COS-7 cell membrane preparations. Here is the method: (§1) The enzymatic activity assay was determined essentially as previously described ([Cogan et al., 1999]) with a few adaptations. The reaction buffer contained 10 mM HEPES, 2 mM CaCl2, 1 mM MgCl2, pH 7.4 in a final volume of 50 μl in transparent 96-well half area plates. For CD39 (NTPDase1), we made use of human umbilical cord membranes preparations which express high levels of the enzyme. For the other human NTPDase isoenzymes, we had to resort to recombinant expression. Human umbilical cord membrane preparations (250 ng) natively expressing high amounts of CD39, or the respective recombinant COS-7 cell membrane preparations expressing the appropriate NTPDase isoenzyme (ca. 100 ng of protein depending on enzyme activity) ([Sévigny et al., 1997]; [Lecka et al., 2013]) with or without inhibitor were preincubated at 37°C and gentle shaking (Eppendorf Thermomixer comfort at 500 rpm) for 5 min. The amount of enzyme preparation was adjusted to ensure 10–20% of substrate conversion. […] ([Kukulski et al., 2005]). After 15 min of incubation at 37°C with gentle shaking, the reaction was stopped by adding the detection reagents (20 µl malachite green solution, 0.6 mM, and 30 µl ammonium molybdate solution, 20 mM, in sulfuric acid, 1.5 M). The released (inorganic) phosphate was quantified after 20 min of gentle shaking at 25°C by measuring the absorption of the malachite green-phosphomolybdate complex at 600 nm using a BMG PheraStar FS plate reader (BMG Labtech GmbH, Ortenberg, Germany). The corrected absorption was calculated by subtracting the absorption of the negative control samples, which were incubated with denatured enzyme (90°C, 15 min), and the inhibition was calculated as follows:
(§2) % Inhibition=(B−T)/B*100%
(§3) where B is the average corrected absorption of the positive control without inhibitor and T the corrected absorption in the presence of test compound.
(§4) Full concentration-inhibition curves were determined with inhibitor concentrations ranging from 0.1 to 300 µM in the presence of 2% DMSO. Three independent experiments were performed (n = 3) and curves were calculated by the GraphPad Prism 8 software. The Ki value was calculated using the Cheng-Prusoff equation for competitive inhibitors: […]

Experiment [2] has as its target T2, NTPDase8 (Homo sapiens, UniProt Q5MY95).
T2 sequence (Q5MY95 1-495): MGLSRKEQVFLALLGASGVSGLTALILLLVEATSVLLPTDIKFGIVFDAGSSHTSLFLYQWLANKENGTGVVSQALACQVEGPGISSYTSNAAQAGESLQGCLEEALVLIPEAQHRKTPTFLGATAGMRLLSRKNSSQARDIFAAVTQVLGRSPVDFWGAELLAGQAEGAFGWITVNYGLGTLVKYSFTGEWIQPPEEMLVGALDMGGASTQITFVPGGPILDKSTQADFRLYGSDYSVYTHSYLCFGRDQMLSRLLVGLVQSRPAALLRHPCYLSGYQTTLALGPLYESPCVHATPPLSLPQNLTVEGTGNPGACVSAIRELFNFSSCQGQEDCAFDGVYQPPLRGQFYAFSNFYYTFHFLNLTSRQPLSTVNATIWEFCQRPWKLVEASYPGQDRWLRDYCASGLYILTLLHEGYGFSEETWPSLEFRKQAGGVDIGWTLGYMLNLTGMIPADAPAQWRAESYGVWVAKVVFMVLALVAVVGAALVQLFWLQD
Kind of experiment: Malachite green assay for NTPDase8. Type of experiment: biochemical. The arrangement: expressed in transfected cells; host or cells: COS-7 cell membrane preparations. Conditions: for Ki: ATP 50 µM, recombinant COS-7 cell membrane preparation, read-out: Ki ± SEM; for % inhibition: test concentration not given. Here is the method: as §1, §2, §3, §4

By Ki is commonly meant the equilibrium dissociation constant of an inhibitor or competing ligand from its target. Broadly, the % inhibition is the change of the read-out against control, counted positive when it falls.

On to `CCCCSc1nc2c(N)ncnc2n1[C@@H]1O[C@H](COP(=O)(O)OP(=O)(O)C(Br)(Br)P(=O)(O)O)[C@@H](O)[C@H]1O` [Compound 31, (((((((2R,3S,4R,5R)-5-(6-Amino-8-(butylthio)-9H-purin-9-yl)-3,4-dihydroxytetrahydrofuran-2-yl)methoxy)(hydroxy)-phosphoryl)oxy)(hydroxy)phosphoryl)dibromomethyl)-phosphonic Acid], for which the “NTPDase2 inhibition (in words)” value in experiment [1] is on record as “weakly inhibit”. Further, in experiment [1] (NTPDase2), the Ki worked out at 22.2 ± 0.5 µM. In experiment [2], the Ki was more than 50 µM and the “% inhibition” value was found to be 2%.
Take `CCN(CC)c1ncnc2c1ncn2[C@@H]1O[C@H](COP(=O)(O)OP(=O)(O)C(Br)(Br)P(=O)(O)O)[C@@H](O)[C@H]1O` [ARL67156, (Dibromo((((((2R,3S,4R,5R)-5-(6-(diethylamino)-9H-purin-9-yl)-3,4-dihydroxytetrahydrofuran-2-yl)methoxy)-(hydroxy)-phosphoryl)oxy)(hydroxy)phosphoryl)methyl)-phosphonic Acid, reference compound]: the Ki in experiment [1] (NTPDase2) and in experiment [2] was more than 50 µM throughout. Moreover, the “% inhibition” value amounted to 18% in experiment [1] (NTPDase2, test concentration not given) and 2% in experiment [2].
Consider `CCCCNc1nc2c(NC)ncnc2n1[C@@H]1O[C@H](COP(=O)(O)OP(=O)(O)C(Br)(Br)P(=O)(O)O)[C@@H](O)[C@H]1O` [Compound 33, (Dibromo((((((2R,3S,4R,5R)-5-(8-(butylamino)-6-(methylamino)-9H-purin-9-yl)-3,4-dihydroxy-tetrahydrofuran-2-yl)methoxy)(hydroxy)phosphoryl)oxy)-(hydroxy)phosphoryl)methyl)-phosphonic Acid], for which, in experiment [1] (NTPDase2), the Ki was found to be 78 ± 0.6 µM. Besides, in experiment [2], the Ki is more than 50 µM and the “% inhibition” value is -11%.
